Source: PMC5421785, “Citrullination only infrequently impacts peptide binding to HLA class II MHC” (PLoS ONE, 2017)
Like-named read-outs stand apart in the source and are kept apart here. Square brackets hold non-standard residues; d marks the D form. Peptide text beside a SMILES is read from it. Cit = NC(=O)NCCC[C@H](N)C(=O)O

Tests used:
[1] = target: T1, HLA-DRB1*01:01 (Homo sapiens, UniProt P01903+P01911, A100R/D57E/F55L/F60I/F76Y/I96L/L162R/M171V/P40L/Q125E/R42F/V115G/Y59C); experiment: HLA class II peptide binding, inhibition of radiolabeled peptide binding to purified MHC
T1 construct: EBV transformed homozygous cell lines were used as sources of MHC molecules; endogenous in cells; host or cells: EBV transformed homozygous cell lines

[2] = target: T2, HLA-DRB1*04:01 (Homo sapiens, UniProt P01903+P01911, A100K/A169T/F76Y/I96L/K127E/L162R/M171V/N62H/P40V/Q125Y/R42H/S133A/S149N/S66Y/V115G/V209L/W38E); experiment: as above; settings: for DRB1*04:01 binding capacity, WT/cit ratio: ratio of WT IC50 to Cit IC50, >1 = citrullination increases binding
T2 construct: EBV transformed homozygous cell lines were used as sources of MHC molecules; endogenous in cells; host or cells: EBV transformed homozygous cell lines

[3] = citrullinated 15-mer peptide (X = citrulline), purified HLA-DRB1*01:01, read-out: DRB1*01:01 binding capacity, Cit peptide (IC50 nM)
[4] = citrullinated 15-mer peptide (X = citrulline), purified HLA-DRB1*04:01, read-out: DRB1*04:01 binding capacity, Cit peptide (IC50 nM)

Compound | IC50 [1, 3] | IC50 [2, 4] | other results
CC[C@H](C)[C@H](NC(=O)CNC(=O)[C@H](CCCNC(=N)N)NC(=O)[C@H](CCC(N)=O)NC(=O)CNC(=O)[C@H](C)NC(=O)[C@H](CC(C)C)NC(=O)CNC(=O)[C@H](CCC(N)=O)NC(=O)[C@@H]1CCCN1C(=O)CNC(=O)[C@@H]1CCCN1)C(=O)N[C@H](C(=O)NCC(=O)N[C@@H](CC(C)C)C(=O)O)C(C)C [Collagen 971 WT] |  |  | IC50 ([1]; wild-type (unmodified Arg) 15-mer peptide, purified HLA-DRB1*01:01, read-out: DRB1*01:01 binding capacity, WT peptide (IC50 nM)): 7.9 nM; IC50 ([2]; wild-type (unmodified Arg) 15-mer peptide, purified HLA-DRB1*04:01, read-out: DRB1*04:01 binding capacity, WT peptide (IC50 nM)): 7160 nM
CSCC[C@H](NC(=O)[C@H](CCC(N)=O)NC(=O)[C@H](CCCNC(=N)N)NC(=O)[C@H](CCC(=O)O)NC(=O)[C@H](CC(C)C)NC(=O)[C@H](CO)NC(=O)[C@H](CCC(=O)O)NC(=O)[C@H](CC(N)=O)NC(=O)[C@@H](NC(=O)CNC(=O)[C@H](CCCCN)NC(=O)[C@H](CC(C)C)NC(=O)[C@H](C)NC(=O)[C@@H](N)CC(=O)O)[C@@H](C)O)C(=O)N[C@@H](CCCNC(N)=O)C(=O)O [DALKGTNESLERQMX] (H-DALKGTNESLERQM[Cit]-OH) | 24200 nM | 17500 nM | 
CSCC[C@H](NC(=O)[C@H](CCC(N)=O)NC(=O)[C@H](CCCNC(N)=O)NC(=O)[C@H](CCC(=O)O)NC(=O)[C@H](CC(C)C)NC(=O)[C@H](CO)NC(=O)[C@H](CCC(=O)O)NC(=O)[C@H](CC(N)=O)NC(=O)[C@@H](NC(=O)CNC(=O)[C@H](CCCCN)NC(=O)[C@H](CC(C)C)NC(=O)[C@H](C)NC(=O)[C@@H](N)CC(=O)O)[C@@H](C)O)C(=O)N[C@@H](CCCNC(=N)N)C(=O)O [DALKGTNESLEXQMR] (H-DALKGTNESLE[Cit]QMR-OH) | > 40000 nM | 16600 nM | 
CC[C@H](C)[C@H](NC(=O)[C@H](CO)NC(=O)[C@H](CCC(=O)O)NC(=O)[C@@H](NC(=O)[C@H](CCC(N)=O)NC(=O)[C@H](CC(N)=O)NC(=O)[C@H](CC(N)=O)NC(=O)[C@H](CC(C)C)NC(=O)[C@H](CO)NC(=O)[C@H](CCCCN)NC(=O)[C@H](CC(C)C)NC(=O)[C@@H](NC(=O)[C@H](C)NC(=O)[C@@H](N)CC(=O)O)[C@@H](C)O)[C@@H](C)CC)C(=O)N[C@@H](CCCNC(N)=O)C(=O)O [DATLKSLNNQIESIX] (H-DATLKSLNNQIESI[Cit]-OH) |  |  | IC50 ([1]; citrullinated peptide as listed (X at Cit position), read-out: DRB1*01:01 binding capacity Cit peptide (IC50 nM)): 9.4 nM; IC50 ([2]; citrullinated peptide as listed (X at Cit position), read-out: DRB1*04:01 binding capacity Cit peptide (IC50 nM)): 1390 nM
CC[C@H](C)[C@H](NC(=O)[C@@H](N)CC(=O)O)C(=O)N[C@@H](CCSC)C(=O)N[C@@H](CCCNC(=N)N)C(=O)N[C@@H](CC(C)C)C(=O)N[C@@H](CCCNC(N)=O)C(=O)N[C@@H](CCC(=O)O)C(=O)N[C@@H](CCCCN)C(=O)N[C@@H](CC(C)C)C(=O)N[C@@H](CCC(N)=O)C(=O)N[C@@H](CCC(=O)O)C(=O)N[C@@H](CCC(=O)O)C(=O)N[C@@H](CCSC)C(=O)N[C@@H](CC(C)C)C(=O)N[C@@H](CCC(N)=O)C(=O)O [DIMRLXEKLQEEMLQ] (H-DIMRL[Cit]EKLQEEMLQ-OH) |  |  | IC50 ([1]; citrullinated 15-mer (X), purified MHC, inhibition of radiolabeled peptide binding, dash = IC50 >40,000 nM, read-out: DRB1*01:01 binding capacity, Cit peptide (IC50 nM)): 729 nM; IC50 ([2]; citrullinated 15-mer (X), purified MHC, inhibition of radiolabeled peptide binding, dash = IC50 >40,000 nM, read-out: DRB1*04:01 binding capacity, Cit peptide (IC50 nM)): > 40000 nM

More lines, main results first:

IC50 [1, 3] | IC50 [2, 4] | Compound | other results
1120 nM | > 40000 nM | CC(C)C[C@H](NC(=O)CNC(=O)[C@@H](N)CC(=O)O)C(=O)N[C@@H](C)C(=O)NCC(=O)N1CCC[C@H]1C(=O)N[C@@H](CCCCN)C(=O)NCC(=O)N[C@@H](C)C(=O)N1CCC[C@H]1C(=O)NCC(=O)N[C@@H](CCC(=O)O)C(=O)N[C@@H](CCCNC(N)=O)C(=O)NCC(=O)N1CCC[C@H]1C(=O)O [DGLAGPKGAPGEXGP] (H-DGLAGPKGAPGE[Cit]GP-OH) | 
> 40000 nM | > 40000 nM | C[C@H](NC(=O)CNC(=O)[C@H](CCCCN)NC(=O)[C@@H]1CCCN1C(=O)CNC(=O)[C@@H](N)CC(=O)O)C(=O)N[C@@H](CCCNC(=N)N)C(=O)NCC(=O)N[C@@H](CC(=O)O)C(=O)N[C@@H](CO)C(=O)NCC(=O)N1CCC[C@H]1C(=O)N1CCC[C@H]1C(=O)NCC(=O)N[C@@H](CCCNC(N)=O)C(=O)O [DGPKGARGDSGPPGX] (H-DGPKGARGDSGPPG[Cit]-OH; N-terminus and C-terminus assumed) | DRB1*04:01 binding capacity, WT/cit ratio [2]: 0.548
> 40000 nM | > 40000 nM | C[C@H](NC(=O)CNC(=O)[C@H](CCCCN)NC(=O)[C@@H]1CCCN1C(=O)CNC(=O)[C@@H](N)CC(=O)O)C(=O)N[C@@H](CCCNC(N)=O)C(=O)NCC(=O)N[C@@H](CC(=O)O)C(=O)N[C@@H](CO)C(=O)NCC(=O)N1CCC[C@H]1C(=O)N1CCC[C@H]1C(=O)NCC(=O)N[C@@H](CCCNC(=N)N)C(=O)O [DGPKGAXGDSGPPGR] (H-DGPKGA[Cit]GDSGPPGR-OH; N-terminus and C-terminus assumed) | DRB1*01:01 binding capacity, WT/cit ratio ([1]; ratio of WT IC50 to Cit IC50, >1 = citrullination increases binding): 0.533; DRB1*04:01 binding capacity, WT/cit ratio [2]: 0.548
